# Tests used:
# [1] = tested on: nude mice with induced Hep-G2 lesions; test: Micro-SPECT/CT imaging and tumor SUV; conditions: for tumor SUVmax, the mouse shown in Figure 7: one nude mouse; for tumor SUVmax, the mouse shown in Figure 7 / tumor SUVmax: right thigh; for tumor SUVmax: Hep-G2 tumor
# Procedure: Hep-G2 tumors were induced in mice (n = 15) by subcutaneous injection (right thigh; positive control) of 1 × 10^6 cells suspended in 0.2 mL of phosphate-buffered saline. Killed Klebsiella pneumoniae bacteria (heated for 2 h at 1000 °C and verified for absence of growth after culturing), aseptically suspended in 0.2 mL of PBS (1 × 10^6 bacteria), were subcutaneously administered into the left thigh of mice in order to induce inflammation (negative control). After the tumor was visible, ^99mTc-iFAP (50 µL, 18 MBq, 7 nmol of iFAP) was administered intravenously into the tail of each mouse. Three mice were selected for micro-SPECT/CT imaging, whereas the rest were sacrificed to be used in the biodistribution study. […] After the mice were sacrificed, the blood and main organs were removed, weighted and their radioactivity measured using a Na(Tl) detector, in order to calculate the percentage of the injected dose per gram of tissue (%ID/g) by using an initial standard volume (100% of the initial injected activity). Biokinetic models of the four main target tissues/organs (blood, tumor, liver and kidneys) were obtained by fitting ^99mTc-iFAP time-activity curves to functions with two or three exponential terms Equation (2):(2) A(t)=Ae^−at+Be^−bt+Ce^−ct
# [2] = tested on: mice with induced Hep-G2 tumors; test: Biodistribution and biokinetic models in tumor-bearing mice; assay type: in vivo; conditions: for Biodistribution, Blood / Biodistribution, Bone / Biodistribution, Heart / Biodistribution, Tumor / Biodistribution, Intestine / Biodistribution, Kidneys / Biodistribution, Liver / Biodistribution, Lung / Biodistribution, Muscle (left thigh) / Biodistribution, Pancreas / Biodistribution, Spleen / Biodistribution, Stomach: i.v.
# Procedure: The biodistribution studies in Balb-c male mice were carried out in agreement with Official Mexican Norm 062-ZOO-1999. Hep-G2 tumors were induced in mice (n = 15) by subcutaneous injection (right thigh; positive control) of 1 × 10^6 cells suspended in 0.2 mL of phosphate-buffered saline. Killed Klebsiella pneumoniae bacteria (heated for 2 h at […] and verified for absence of growth after culturing), aseptically suspended in 0.2 mL of PBS (1 × 10^6 bacteria), were subcutaneously administered into the left thigh of mice in order to induce inflammation (negative control). After the tumor was visible, ^99mTc-iFAP (50 µL, 18 MBq, 7 nmol of iFAP) was administered intravenously into the tail of each mouse. Three mice were selected for micro-SPECT/CT imaging, whereas the rest were sacrificed to be used in the biodistribution study. The times of evaluation were 15 min, 30 min, 2 h and 24 h. After the mice were sacrificed, the blood and main organs were removed, weighted and their radioactivity measured using a […] detector, in order to calculate the percentage of the injected dose per gram of tissue (%ID/g) by using an initial standard volume (100% of the initial injected activity). Biokinetic models of the four main target tissues/organs (blood, tumor, liver and kidneys) were obtained by fitting ^99mTc-iFAP time-activity curves to functions with two or three exponential terms Equation (2):(2) A(t)=Ae^−at+Be^−bt+Ce^−ct
# [3] = Human serum stability and protein binding (size-exclusion radio-HPLC); assay type: in vitro ADME
# Procedure: The ^99mTc-iFAP (37 MBq, 100 µL, 14 nmol) was incubated at 37 °C with 500 µL of human serum (IST-909c certified human serum sample, Sigma-Aldrich) and diluted in 0.5 mL of a 0.9% NaCl solution. Twenty microliters of the mixture were sampled at 30 min, 3 and 24 h for size-exclusion radio-HPLC analysis using a ProteinPak 300SW Waters column and 0.01M PBS as the mobile phase (1 mL/min). The percentage of recovery (quantification of the radioactivity recovered from the HPLC column) was determined by injecting 20 µL of the ^99mTc-iFAP sample into the HPLC system and 20 µL into a 50 mL volumetric flask, which was filled with 0.01 M PBS (flask 1). The column was eluted with 0.01 M PBS for 50 min (1 mL/min) and the effluent was collected in a 50 mL volumetric flask (flask 2). Aliquots of 1 mL from both flask 1 and flask 2 were measured on an HPGe detector (ORTEC). The percentage of recovery was calculated by dividing the counts in flask 2 by the counts in flask 1 then multiplied by 100.
# [4] = tested on: N30 (primary human stromal endometrial cells, FAP positive); test: Cellular uptake and internalization; assay type: cell-based; conditions: 1 h, 37 °C
# Procedure: The ^99mTc-iFAP uptake and internalization by N30 (FAP +) and fibroblast (FAP −) cells were determined by using 4 × 10^5 cells/500 µL of PBS in test tubes (n = 6). Both cells lines were incubated for 1 h at 37 °C with 10 µL of ^99mTc-iFAP (37 kBq, 0.4 nmol iFAP). After incubation, three washes with 500 µL of PBS were performed by centrifugation (700 g/5 min). By using a crystal scintillation (NaI(Tl)) well-type detector (MNL Inc., Littleton, CO, USA), the radioactivity in the cell pellet was evaluated. A standard volume with the initial activity was used to represent 100%, and the cell uptake activity was assessed with regard to this value. For the evaluation of internalization, the cell pellets were treated at 37 °C for 5 min with 500 µL of an acid glycine solution (0.1 M glycine, pH adjusted to 2.8 with HCl), and centrifuged (700 g/5 min). The cell pellet was incubated with 1 M NaOH for 5 min and centrifuged (700 g/5 min). The radioactivity of the supernatant was calculated as the percentage of internalization with regard to the initial activity of the standard volume as mentioned above.
# [5] = Radiochemical stability of the radiopharmaceutical after labeling (radio-HPLC/ITLC-SG); assay type: physicochemical; conditions: 24 h after labeling
# Procedure: For radiolabeling, the lyophilized formulation was reconstituted with 1 mL of a 0.2 M phosphate buffer and 1 mL of ^99mTcO4Na (740–1110MBq). The reaction was incubated in a block heater for 15 min at 92 °C. The radiochemical purity was 98% as determined by radio-HPLC (Discovery C18; 5 μm particle size; L × I.D. 25 cm × 4.6 mm; linear gradient: 0.1% TFA/water (A) and 0.1% TFA/acetonitrile (B) flow rate of 1 mL/min. A-100% for 3 min, changed to A-50% over 10 min and maintained for 10 min, changed A-30% over 3 min and returned to A-100% over 4 min).
# ITLC-SG (instant thin layer chromatography-silica gel) was also carried out for the assessment of ^99mTc-iFAP radiochemical purity. Three mobile phases were used, the 2-butanone phase was employed for the identification of free ^99mTcO4^− (Rf = 1), where ^99mTc-iFAP, ^99mTc-EDDA/tricine and ^99mTc-colloid remained in the origin (Rf = 0); 0.1 M sodium citrate (pH 5) identified free ^99mTcO4 (Rf = 1) and ^99mTc-EDDA/tricine coligands (Rf = 1), where ^99mTc-iFAP and ^99mTc-colloid remained in the origin (Rf = 0); finally, the third phase was used for the determination of ^99mTc-colloid (Rf = 0) and consisted of ammonium acetate-methanol (1:1 v/v) ( ^99mTcO4^−, ^99mTc-iFAP and ^99mTc-EDDA run with the solvent front; Rf = 1).
# [6] = tested on: tumor microenvironment of different types of cancer; test: Preliminary clinical SPECT/CT imaging studies; assay type: in vivo; conditions: preliminary clinical studies in progress, breast, lung, colorectal, gliomas, cervical cancer
# [7] = tested on: healthy laboratory Balb-C mice; test: Adverse effects of the cold ligand; assay type: in vivo; conditions: dose of 40 mg/kg
compound,measurement,setting,value
^99mTc-((R)-1-((6-hydrazinylnicotinoyl)-D-alanyl) pyrrolidin-2-yl) boronic acid [^99mTc-iFAP],"tumor SUVmax, the mouse shown in Figure 7",[1]; 30 min,5.6
same,tumor SUVmax,[1]; 30 min after administration,5.0 ± 1.2
same,"tumor SUVmax, the mouse shown in Figure 7",[1]; 24 h,2.4
same,tumor SUVmax,[1]; 24 h after administration,2.7 ± 0.6
same,radiotracer uptake in left thigh with inflammation induced by killed bacteria (negative control),"[1]; micro-SPECT/CT, left thigh",no radiotracer uptake was observed
same,"Biodistribution, Blood",[2]; 15 min,2.07 ± 0.63 %ID/g
same,"Biodistribution, Blood",[2]; 30 min,1.02 ± 0.32 %ID/g
same,"Biodistribution, Blood",[2]; 2 h,0.33 ± 0.05 %ID/g
same,"Biodistribution, Blood",[2]; 24 h,0.01 ± 0.01 %ID/g
same,"Biodistribution, Bone",[2]; 15 min,0.20 ± 0.09 %ID/g
same,"Biodistribution, Bone",[2]; 30 min,0.14 ± 0.06 %ID/g
same,"Biodistribution, Bone",[2]; 2 h,0.13 ± 0.02 %ID/g
same,"Biodistribution, Heart",[2]; 15 min,1.75 ± 0.08 %ID/g
same,"Biodistribution, Heart",[2]; 30 min,0.88 ± 0.23 %ID/g
same,"Biodistribution, Heart",[2]; 2 h,0.19 ± 0.03 %ID/g
same,"Biodistribution, Tumor","[2]; Hep-G2 tumor, 15 min",9.87 ± 1.94 %ID/g
same,"Biodistribution, Tumor","[2]; Hep-G2 tumor, 30 min",7.05 ± 1.13 %ID/g
same,"Biodistribution, Tumor","[2]; Hep-G2 tumor, 2 h",5.18 ± 0.82 %ID/g
same,"Biodistribution, Tumor","[2]; Hep-G2 tumor, 24 h",2.37 ± 0.26 %ID/g
same,tumor fast elimination constant (λeff),"[2]; Hep-G2 tumor, biokinetic model",0.41 h⁻¹
same,tumor slow elimination constant (λeff),"[2]; Hep-G2 tumor, biokinetic model",0.12 h⁻¹
same,"Biodistribution, Intestine",[2]; 15 min,1.42 ± 0.74 %ID/g
same,"Biodistribution, Intestine",[2]; 30 min,0.93 ± 0.14 %ID/g
same,"Biodistribution, Intestine",[2]; 2 h,0.22 ± 0.10 %ID/g
same,"Biodistribution, Kidneys",[2]; 15 min,13.85 ± 2.27 %ID/g
same,"Biodistribution, Kidneys",[2]; 30 min,11.18 ± 1.54 %ID/g
same,"Biodistribution, Kidneys",[2]; 2 h,7.46 ± 1.02 %ID/g
same,"Biodistribution, Kidneys",[2]; 24 h,1.89 ± 0.53 %ID/g
same,"Biodistribution, Liver",[2]; 15 min,2.78 ± 0.42 %ID/g
same,"Biodistribution, Liver",[2]; 30 min,2.14 ± 0.51 %ID/g
same,"Biodistribution, Liver",[2]; 2 h,1.05 ± 0.29 %ID/g
same,"Biodistribution, Liver",[2]; 24 h,0.05 ± 0.03 %ID/g
same,"Biodistribution, Lung",[2]; 15 min,1.11 ± 0.51 %ID/g
same,"Biodistribution, Lung",[2]; 30 min,0.65 ± 0.19 %ID/g
same,"Biodistribution, Lung",[2]; 2 h,0.02 ± 0.01 %ID/g
same,"Biodistribution, Muscle (left thigh)",[2]; 15 min,0.39 ± 0.15 %ID/g
same,"Biodistribution, Muscle (left thigh)",[2]; 30 min,0.31 ± 0.11 %ID/g
same,"Biodistribution, Muscle (left thigh)",[2]; 2 h,0.18 ± 0.06 %ID/g
same,"Biodistribution, Pancreas",[2]; 15 min,0.64 ± 0.10 %ID/g
same,"Biodistribution, Pancreas",[2]; 30 min,0.31 ± 0.12 %ID/g
same,"Biodistribution, Pancreas",[2]; 2 h,0.12 ± 0.04 %ID/g
same,"Biodistribution, Spleen",[2]; 15 min,1.07 ± 0.17 %ID/g
same,"Biodistribution, Spleen",[2]; 30 min,0.82 ± 0.04 %ID/g
same,"Biodistribution, Spleen",[2]; 2 h,0.15 ± 0.05 %ID/g
same,"Biodistribution, Stomach",[2]; 15 min,0.71 ± 0.08 %ID/g
same,"Biodistribution, Stomach",[2]; 30 min,0.39 ± 0.12 %ID/g
same,"Biodistribution, Stomach",[2]; 2 h,0.25 ± 0.03 %ID/g
same,"fraction of radiotracer eliminated from blood, fast phase","[2]; blood, biokinetic model, fast",88.6%
same,"fraction of radiotracer eliminated from blood, slow phase","[2]; blood, biokinetic model, slow",11.4%
same,blood half-life (slow),"[2]; blood, t1/2 = ln2/0.27",154 min
same,blood half-life (fast),"[2]; blood, t1/2 = ln2/2.93",14.4 min
same,"kidney half-life, second phase","[2]; kidneys, t1/2 = ln2/1.54",27 min
same,kidney half-life (fast),"[2]; kidneys, t1/2 = ln2/2.71",15.6 min
same,"fraction of activity eliminated from kidneys, fast phase","[2]; kidneys, triexponential model, fast",49.4%
same,"fraction of activity eliminated from kidneys, second phase","[2]; kidneys, triexponential model, second phase",6.3%
same,"fraction of activity eliminated from kidneys, slow phase","[2]; kidneys, triexponential model, slow",44.3%
same,stability in fresh human serum,"[3]; 30 min, 3 h and 24 h, 37 °C",remained stable
same,99mTc-colloid as activity retained in the column,"[3]; from percentage of recovered activity, size-exclusion HPLC",0.2%
same,transchelation of 99mTc to cysteine,"[3]; human serum, 37 °C",does not occur
same,serum protein binding,"[3]; human serum, 37 °C, 30 min",0.3 ± 0.1%
same,serum protein binding,"[3]; human serum, 37 °C, 3 h",0.9 ± 0.2%
same,radiochemical stability in human serum,"[3]; human serum, 37 °C, 24 h",> 95%
same,serum protein binding,"[3]; human serum, 37 °C, 24 h",2.1 ± 0.3%
same,internalization rate in N30 cells,[4],rather low
same,cellular uptake in N30 compared to fibroblasts,"[4]; human fibroblasts FAP negative control, p < 0.05, n = 6",increased
same,radiochemical purity after 24 h of labeling,[5],greater than 97%
same,sensitivity to detect the tumor microenvironment,[6],high sensitivity
"C[C@@H](NC(=O)c1ccc(NN)nc1)C(=O)N1CCC[C@H]1B(O)O [iFAP, ((R)-1-((6-hydrazinylnicotinoyl)-D-alanyl)pyrrolidin-2-yl) boronic acid]",adverse effects,[7],did not show adverse effects

# From article PMC8746441, “Design, Synthesis and Preclinical Assessment of ^99mTc-iFAP for In Vivo Fibroblast Activation Protein (FAP) Imaging” (Molecules, 2022)
